Laboratory results taken from the COVID Moonshot data (paper PMC7615835).
Where “and” joins values, the source holds several entries; their conditions need not be identical. Identical values can stand only once.

What follows are compounds tested against SARS-CoV-2 Main Protease (SARS-CoV-2) (UniProt P0DTD1).

`Cn1cnc(C(=O)N(c2ccc(C(C)(C)C)cc2)C(C(=O)NCCc2cccc(F)c2)c2cccnc2)cc1=O` (configuration not stated) and `Cn1nncc1C(=O)N(c1ccc(C(C)(C)C)cc1)C(C(=O)NCCc1cccc(F)c1)c1cccnc1` (configuration not stated) cannot be ordered by IC50: over 99.5 µM for the first, over 99.5 µM for the second.

`Cc1nc2sccn2c1CN(C)C(=O)c1cn2ccccc2n1` and `CC(NC(=O)c1c(Cl)nc2ccccn12)c1nnc2ccccn12` (configuration not stated) cannot be ordered by IC50: over 99.5 µM for the first, over 99.5 µM for the second.

Going from `NS(=O)(=O)c1ccc2c(c1)CN(CC1CCN(C(=O)CCl)CC1)CC2` to `O=C(CCl)N1CCN(Cc2cc(Cl)cc(Cl)c2)CC1`, the IC50 falls from 19.5 µM to 1.89 µM (10-fold).

First: CC1(C(=O)Nc2cncc3cc(S(C)(=O)=O)ccc23)CNS(=O)(=O)c2ccc(Cl)cc21 (configuration not stated)
Second: CC1(C(=O)Nc2cncc3ccccc23)CN(CC2CC2)S(=O)(=O)c2ccc(Cl)cc21 (configuration not stated)
The IC50 of the first is 3.7-fold lower: 0.172 µM for the first, 0.634 µM for the second. The first is the more potent here.

Going from `COc1ccccc1N1CCN(c2cc(Cl)cc(CC(=O)Nc3cncc4ccccc34)c2)CC1` to `O=C(Cc1cc(Cl)cc(N2CCN(CCc3ccccc3)CC2)c1)Nc1cncc2ccccc12`, the IC50 rises from 2.98 µM to 5.02 µM (1.7-fold). The first is the more potent here.

Compared with `COc1ccccc1OC1CCN(C(=O)c2cc(=O)[nH]c3ccccc23)C1` (configuration not stated), `O=C(c1cc(=O)[nH]c2ccccc12)N1CCN(c2cccc(Cl)c2)C(=O)C1` is lower in IC50: over 99.5 µM for the first, 15.8 µM for the second.

Going from `Cc1cc2c(N)nc(=O)n(CC(=O)Nc3cccc(Cl)c3)c2s1` to `Cc1ccn2cnnc2c1NC(=O)Cc1cccc(Cl)c1`, the IC50 falls from over 99.5 µM to 75.3 µM.

`CCCCn1nnnc1CNC1CCc2nc(C(C)C)nn2C1` (configuration not stated) and `O=C(NCCc1nnc2n1CCC2)c1cc(O)nc2ccccc12` cannot be ordered by IC50: over 99.5 µM for the first, over 99.5 µM for the second.

First: O=C(C[C@]1(C(=O)Nc2cncc3ccccc23)CCOc2ccc(Cl)cc21)N1CCN(C2CCOC2)CC1 (stereo in doubt)
Second: CC1(C(=O)Nc2cncc3ccccc23)CN(S(=O)(=O)CC2(C#N)CC2)Cc2ccc(Cl)cc21 (configuration not stated)
The IC50 of the first is 21-fold higher: 1.99 µM for the first, 0.096 µM for the second.

`O=C(Cc1cccc(Cl)c1)Nc1c[nH]c2ccccc12` and `O=C(Cc1cccc(Cl)c1)Nc1noc2ccccc12` cannot be ordered by IC50: over 99.5 µM for the first, over 99.5 µM for the second.

`O=C(Cc1cc(Cl)cc(Oc2cccc(=O)[nH]2)c1)Nc1cncc2ccccc12` and `O=C(Cc1cc(Cl)cc(Nc2cccc(Br)c2)c1)Nc1cncc2ccccc12` are within 1.5-fold of each other in IC50: 1.98 µM for the first, 2.07 µM for the second.

Going from `O=C(NCc1ccccc1)[C@@H]1CN(C(=O)CCl)CCN1S(=O)(=O)c1ccsc1` (stereo in doubt) to `O=C(Nc1cncc2ccccc12)C1CN(S(=O)(=O)CC2CC2(F)F)Cc2ccc(Cl)cc21` (configuration not stated), the IC50 falls from 0.501 µM to 0.159 µM (3.2-fold). The second is the more potent here.

First: O=C(NCCc1cccc(F)c1)C(c1cccnc1)N(Cc1cc(C(F)(F)F)cs1)C(=O)c1ccco1 (configuration not stated)
Second: CSc1ccc(CN(C(=O)c2ccco2)C(C(=O)NCCc2cccc(F)c2)c2cccnc2)cc1C#N (configuration not stated)
The IC50 of the first is higher: over 99.5 µM for the first, 54.9 µM for the second.

Compared with `O=C(Cc1cc(Cl)cc(Nc2cccc(-c3ccccc3)c2)c1)Nc1cncc2ccccc12`, `Cc1ccc(Nc2cc(Cl)cc(CC(=O)Nc3cncc4ccccc34)c2)c(Br)c1` is 3.1-fold lower in IC50: 5.85 µM for the first, 1.9 µM for the second.

`O=C(NCCCc1nc(=O)[nH][nH]1)C1(c2ccc(F)cc2F)CCC1` and `O=C(NCCc1cccc(F)c1)C(c1cccnc1)N(C(=O)c1cnc[nH]1)C1CCCCCC1` (configuration not stated) cannot be ordered by IC50: over 99.5 µM for the first, over 99 µM for the second.

Compared with `Nc1nn(C(=O)C2CCOc3ccc(Cl)cc32)c2ccncc12` (configuration not stated), `O=C(Nc1cncc2cc(CN3CCNCC3)ccc12)C1CCOc2ccc(Cl)cc21` (configuration not stated) is 48-fold lower in IC50: 87.2 µM for the first, 1.83 µM for the second. The second is the more potent here.

`CC(C)CCN1C(=O)C(=O)c2cc(Br)ccc21` and `O=C(O)CN1C(=O)C(=O)c2cc([N+](=O)[O-])ccc21` cannot be ordered by IC50: over 99.5 µM for the first, over 99.5 µM for the second.

Going from `C=CC(=O)N(c1ccc(C(C)(C)C)cc1)[C@@H](C(=O)NCCc1cccc(F)c1)c1cccnc1` (stereo in doubt) to `CC(C)(C)c1ccc(N(C(=O)c2nccs2)C(C(=O)NCCc2cccc(F)c2)c2cccnc2)cc1` (configuration not stated), the IC50 falls from 86.4 µM to 0.8 µM (110-fold).

`O=C(Cc1cccc(Cl)c1)Nc1[nH]nc2cccnc12` and `COc1ncc(NC(=O)Cc2cccc(Cl)c2)c2ccccc12` cannot be ordered by IC50: over 99.5 µM for the first, over 99.5 µM for the second.

First: CC(C)(C)c1ccc(N(C(=O)c2cocn2)C(C(=O)NCCc2cccc(F)c2)c2cnccn2)cc1 (configuration not stated)
Second: COc1ccc(N(C(=O)c2ccco2)C(C(=O)NCCc2cccc(F)c2)c2cccnc2)cc1 (configuration not stated)
The IC50 of the first is 25-fold lower: 1.21 µM for the first, 30.5 µM for the second. The first is the more potent here.

Going from `CCOc1ccccc1CNc1cc(Cl)cc(CC(=O)Nc2cncc3ccccc23)c1` to `O=C(Cc1cc(Cl)cc(NCc2ccc(Br)cc2)c1)Nc1cncc2ccccc12`, the IC50 rises from 2.07 µM to over 99.5 µM. The first is the more potent here.

Going from `Cc1ccncc1NC(=O)C(C)c1cc(Cl)cc(OC2CC(=O)N2)c1` (configuration not stated) to `COC(=O)C(C(=O)Nc1cnccc1C)c1cccc(Cl)c1` (configuration not stated), the IC50 falls from 77.1 µM to 23.7 µM (3.3-fold). The second is the more potent here.

`O=C(Cc1cc(Cl)cc(Nc2cccnc2Br)c1)Nc1cncc2ccccc12` and `O=C(Cc1cc(Cl)cc(Nc2cnc(Cl)c(Br)c2)c1)Nc1cncc2ccccc12` are within 1.5-fold of each other in IC50: 2.08 µM for the first, 3.08 µM for the second.

`O=C(Cc1cc(Cl)cc(Nc2ncnc3c2ncn3CCO)c1)Nc1cncc2ccccc12` and `Cc1cc(F)cc(Br)c1Nc1cc(Cl)cc(CC(=O)Nc2cncc3ccccc23)c1` are within 1.5-fold of each other in IC50: 1.82 µM for the first, 2 µM for the second.

First: Cc1cc(C(=O)N2Cc3ccc(Cl)cc3C3(CCN(c4cncc5ccccc45)C3=O)C2)n(C)n1 (configuration not stated)
Second: CNC(=O)CN1CC2(CC(=O)N(c3cncc4ccccc34)C2=O)c2cc(Cl)ccc2C1=O (configuration not stated)
The IC50 of the first is 1.8-fold higher: 0.464 µM for the first, 0.26 µM for the second. The second is the more potent here.

`COc1cnc(C#N)nc1` and `Cc1ccncc1OCCNC(=O)C(C)(C)c1cccc(Cl)c1` cannot be ordered by IC50: over 99.5 µM for the first, over 99.5 µM for the second.

`O=C(Cc1cc(Cl)cc(Nc2cc(Cl)c(F)cc2F)c1)Nc1cncc2ccccc12` and `Cc1cc(Br)cc(C)c1Nc1cc(Cl)cc(CC(=O)Nc2cncc3ccccc23)c1` are within 1.5-fold of each other in IC50: 1.74 µM for the first, 1.71 µM for the second.

Compared with `O=S(=O)(Cc1ccccc1F)c1oc(-c2ccc(F)cc2)nc1S(=O)(=O)c1ccccc1`, `Cn1c(C(NC(=O)Cc2cc3ccccc3[nH]2)c2cccc(Cl)c2)nc2ccccc21` (configuration not stated) is higher in IC50: 0.397 µM for the first, over 99.5 µM for the second. The first is the more potent here.

Compared with `COc1cc2c(cc1Nc1cc(Cl)cc(CC(=O)Nc3cncc4ccccc34)c1)oc1ccccc12`, `O=C(Cc1cc(Cl)cc(NCCc2ccc(Cl)c(Cl)c2)c1)Nc1cncc2ccccc12` is 2.9-fold higher in IC50: 1.87 µM for the first, 5.41 µM for the second. The first is the more potent here.

Going from `O=C(Cc1cncc2ccccc12)N(CCC1CCCCC1)c1cccc(Cl)c1` to `CN(C)CCCN(Cc1cccs1)C(=O)Cc1cncc2ccccc12`, the IC50 rises from 2.11 µM to over 99.5 µM.

`O=C(Cn1ccc(=O)[nH]c1=O)OCc1ccc(-c2ccccc2)cc1` and `O=C(NCCc1cccc(F)c1)C(c1cccnc1)N(Cc1ccccc1)C(=O)c1cnc[nH]1` (configuration not stated) cannot be ordered by IC50: over 99.5 µM for the first, over 99 µM for the second.

Going from `CC(C)S(=O)(=O)Nc1ccc2c(NC(=O)C3CN(S(=O)(=O)CC4(C#N)CC4)Cc4ccc(Cl)cc43)cncc2c1` (configuration not stated) to `Cc1ccncc1NC(=O)Cc1cc(Cl)cc(C2COC2)c1`, the IC50 rises from 0.0898 µM to 19.1 µM (210-fold).

Going from `C=CC(=O)N(c1ccc(C(C)(C)C)cc1)C(C(=O)NCCOC)c1cccnc1` (configuration not stated) to `Cn1ccc2cc(N(C(=O)c3cnc[nH]3)C(C(=O)NCCc3cccc(F)c3)c3cccnc3)ccc21` (configuration not stated), the IC50 rises from 55.8 µM to over 99 µM.

In the case of `CCCCCC(=O)SCCNC(=O)CCNC(=O)[C@H](O)C(C)(C)COP(=O)(O)OP(=O)(O)OC[C@H]1O[C@@H](n2cnc3c(N)ncnc32)[C@H](O)[C@@H]1OP(=O)(O)O` (stereo in doubt), the IC50 is reported as 46.1 µM and 85.1 µM.
`COc1ccccc1OCC(C)NC(=O)c1cc(=O)[nH]c2cc(F)ccc12` (configuration not stated) was tested, and the IC50 was 40.5 µM and 26.9 µM.
With `CCCC(C(=O)Nc1cnccc1C)c1cccc(Cl)c1` (configuration not stated) the IC50 was 17.9 µM and 16.8 µM.
With `O=C(Cc1cc(Cl)cc2c1OCC2)Nc1cncc2ccccc12` the IC50 was 1.13 µM and 1.87 µM.
With `CNC(=O)CN1CC(C)(C(=O)Nc2cncc3cc(S(C)(=O)=O)ccc23)c2cc(Cl)ccc2S1(=O)=O` (configuration not stated) the IC50 was 0.131 µM and 0.189 µM.
For `CC1(CS(=O)(=O)N2Cc3ccc(Cl)cc3[C@H](C(=O)Nc3cncc4ccccc34)C2)CC1` (stereo in doubt), the IC50 was < 0.05 µM and 0.0846 µM and 0.0459 µM.
